Reference: patent publication US12077503B2, “Substituted cyclic amides and their use as herbicides” (FMC CORPORATION, priority 2015, dated 2024)

Experiments:
Format in all cases: in vivo
[1] = test system: pigweed (Amaranthus retroflexus); assay: Test A preemergence; conditions: for Plant response rating, Pigweed: 125 g ai/ha; for Pigweed plant response rating (0 to 100 scale, 0 is no effect, 100 is complete control): 500 g ai/ha, visual injury approx. 10 d
[2] = test system: ryegrass, Italian (Italian ryegrass, Lolium multiflorum); assay: Test A preemergence; conditions: for Plant response rating, Ryegrass, Italian: 125 g ai/ha; for Ryegrass, Italian plant response rating (0 to 100 scale, 0 is no effect, 100 is complete control): 500 g ai/ha, visual injury approx. 10 d
Method in brief: (§1)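 Preemergence directed soil spray on seeded pots, or postemergence application to plants 2–10 cm, one- to two-leaf. Solvent mixture non-phytotoxic, with surfactant. Scored ~10 d later, visually, 0–100 vs untreated.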

[3] = test system: ragweed (common ragweed, Ambrosia elatior); assay: Test A preemergence; conditions: for Plant response rating, Ragweed: 125 g ai/ha; for Ragweed plant response rating (0 to 100 scale, 0 is no effect, 100 is complete control): 500 g ai/ha, visual injury approx. 10 d
Method in brief: as §1

[4] = test system: Kochia (Kochia scoparia); assay: Test A preemergence; conditions: for Plant response rating, Kochia: 125 g ai/ha; for Kochia plant response rating (0 to 100 scale, 0 is no effect, 100 is complete control): 500 g ai/ha, visual injury approx. 10 d
Method in brief: as §1

[5] = test system: barnyardgrass (Echinochloa crus-galli); assay: Test A preemergence; conditions: for Plant response rating, Barnyardgrass: 125 g ai/ha; for Barnyardgrass plant response rating (0 to 100 scale, 0 is no effect, 100 is complete control): 500 g ai/ha, visual injury approx. 10 d
Method in brief: as §1

[6] = test system: giant foxtail (Setaria faberii); assay: Test A preemergence; conditions: for Plant response rating, Foxtail, Giant: 125 g ai/ha; for Foxtail, Giant plant response rating (0 to 100 scale, 0 is no effect, 100 is complete control): 500 g ai/ha, visual injury approx. 10 d
Method in brief: as §1

[7] = test system: ducksalad (Heteranthera limosa); assay: Test B flooded paddy test; conditions: Flood, 0 to 100 scale where 0 is no effect and 100 is complete control, 13 to 15 d
Method in brief: (§2)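 Evaluation by eye, against controls, occurred 13–15 d post-treatment in a greenhouse, using a 0 (no effect) to 100 (complete control) scale. Application was into the paddy water, 3 cm deep over the soil, on 2-leaf plants.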

[8] = test system: sedge, umbrella (small-flower umbrella sedge, Cyperus difformis); assay: Test B flooded paddy test; conditions: Flood, 0 to 100 scale where 0 is no effect and 100 is complete control, 13 to 15 d
Method in brief: as §2

[9] = test system: barnyardgrass (Echinochloa crus-galli); assay: Test B flooded paddy test; conditions: Flood, 0 to 100 scale where 0 is no effect and 100 is complete control, 13 to 15 d
Method in brief: as §2

[10] = test system: rice (Oryra sativa); assay: Test B flooded paddy test; conditions: Flood, 0 to 100 scale where 0 is no effect and 100 is complete control, 13 to 15 d
Method in brief: as §2

[11] = test system: corn (Zea mays); assay: Test A postemergence; conditions: for Corn plant response rating: 125 g ai/ha, visual injury rating on 0 to 100 scale (0 no effect, 100 complete control), approx. 10 d; for Plant response rating, Corn: 500 g ai/ha
Method in brief: as §1

[12] = test system: pigweed (Amaranthus retroflexus); assay: Test A postemergence; conditions: for Pigweed plant response rating: 125 g ai/ha, visual injury rating on 0 to 100 scale (0 no effect, 100 complete control), approx. 10 d; for Plant response rating, Pigweed: 500 g ai/ha
Method in brief: as §1

[13] = test system: ryegrass, Italian (Italian ryegrass, Lolium multiflorum); assay: Test A postemergence; conditions: for Ryegrass, Italian plant response rating: 125 g ai/ha, visual injury rating on 0 to 100 scale (0 no effect, 100 complete control), approx. 10 d; for Plant response rating, Ryegrass, Italian: 500 g ai/ha
Method in brief: as §1

[14] = test system: ragweed (common ragweed, Ambrosia elatior); assay: Test A postemergence; conditions: for Ragweed plant response rating: 125 g ai/ha, visual injury rating on 0 to 100 scale (0 no effect, 100 complete control), approx. 10 d; for Plant response rating, Ragweed: 500 g ai/ha
Method in brief: as §1

[15] = test system: Kochia (Kochia scoparia); assay: Test A postemergence; conditions: for Kochia plant response rating: 125 g ai/ha, visual injury rating on 0 to 100 scale (0 no effect, 100 complete control), approx. 10 d; for Plant response rating, Kochia: 500 g ai/ha
Method in brief: as §1

[16] = test system: Galium (catchweed bedstraw, Galium aparine); assay: Test A postemergence; conditions: for Galium plant response rating: 125 g ai/ha, visual injury rating on 0 to 100 scale (0 no effect, 100 complete control), approx. 10 d; for Plant response rating, Galium: 500 g ai/ha
Method in brief: as §1

[17] = test system: barnyardgrass (Echinochloa crus-galli); assay: Test A postemergence; conditions: for Barnyardgrass plant response rating: 125 g ai/ha, visual injury rating on 0 to 100 scale (0 no effect, 100 complete control), approx. 10 d; for Plant response rating, Barnyardgrass: 500 g ai/ha
Method in brief: as §1

[18] = test system: wheat (Triticum aestivum); assay: Test A postemergence; conditions: for Wheat plant response rating: 125 g ai/ha, visual injury rating on 0 to 100 scale (0 no effect, 100 complete control), approx. 10 d; for Plant response rating, Wheat: 500 g ai/ha
Method in brief: as §1

[19] = test system: blackgrass (Alopecurus myosuroides); assay: Test A postemergence; conditions: for Blackgrass plant response rating: 125 g ai/ha, visual injury rating on 0 to 100 scale (0 no effect, 100 complete control), approx. 10 d; for Plant response rating, Blackgrass: 500 g ai/ha
Method in brief: as §1

[20] = test system: giant foxtail (Setaria faberii); assay: Test A postemergence; conditions: for Foxtail, Giant plant response rating: 125 g ai/ha, visual injury rating on 0 to 100 scale (0 no effect, 100 complete control), approx. 10 d; for Plant response rating, Foxtail, Giant: 500 g ai/ha
Method in brief: as §1

[21] = preemergence, 0 to 100 scale (0 no effect, 100 complete control)
[22] = postemergence, 0 to 100 scale, 0 no effect, 100 complete control
[23] = Preemergence, visual injury after approximately 10 d, 0 to 100 scale where 0 is no effect and 100 is complete control
[24] = Postemergence, 0 to 100 scale where 0 is no effect and 100 is complete control

| Structure (SMILES) | Plant response rating, Pigweed [1, 21] | Pigweed plant response rating (0 to 100 scale, 0 is no effect, 100 is complete control) ([1]; Preemergence) | Plant response rating, Ryegrass, Italian [2, 21] | Ryegrass, Italian plant response rating (0 to 100 scale, 0 is no effect, 100 is complete control) ([2]; Preemergence) | Plant response rating, Ragweed [3, 21] | Ragweed plant response rating (0 to 100 scale, 0 is no effect, 100 is complete control) ([3]; Preemergence) | Plant response rating, Kochia [4, 21] | Kochia plant response rating (0 to 100 scale, 0 is no effect, 100 is complete control) ([4]; Preemergence) | Barnyardgrass plant response rating (0 to 100 scale, 0 is no effect, 100 is complete control) ([5]; Preemergence) | Foxtail, Giant plant response rating (0 to 100 scale, 0 is no effect, 100 is complete control) ([6]; Preemergence) | Corn plant response rating ([11]; postemergence) | Pigweed plant response rating ([12]; postemergence) | Ryegrass, Italian plant response rating ([13]; postemergence) | Ragweed plant response rating ([14]; postemergence) | Kochia plant response rating ([15]; postemergence) | Galium plant response rating ([16]; postemergence) | Barnyardgrass plant response rating ([17]; postemergence) | Wheat plant response rating ([18]; postemergence) | Blackgrass plant response rating ([19]; postemergence) | Foxtail, Giant plant response rating ([20]; postemergence) | other results |
| --- | --- | --- | --- | --- | --- | --- | --- | --- | --- | --- | --- | --- | --- | --- | --- | --- | --- | --- | --- | --- | --- |
| CN1CC(c2ccc3c(c2)OC(F)(F)O3)C(C(=O)Nc2ccccc2F)C1=O (stereo not drawn) [Compound 441] | 50 | 70 | 70 | 80 | 30 | 80 | 70 | 80 | 90 | 90 | 60 | 40 | 60 | 20 | 40 | 50 | 80 | 50 | 50 | 80 | Plant response rating, Barnyardgrass [5, 21]: 90; Plant response rating, Foxtail, Giant [6, 21]: 90; Plant response rating, Ducksalad ([7]; 250 g ai/ha): 90; Plant response rating, Sedge, Umbrella ([8]; 250 g ai/ha): 0; Plant response rating, Barnyardgrass ([9]; 250 g ai/ha): 70; Plant response rating, Rice ([10]; 250 g ai/ha): 0; Plant response rating, Corn [11, 22]: 70; Plant response rating, Pigweed [12, 22]: 60; Plant response rating, Ryegrass, Italian [13, 22]: 60; Plant response rating, Ragweed [14, 22]: 50; Plant response rating, Kochia [15, 22]: 70; Plant response rating, Galium [16, 22]: 50; Plant response rating, Barnyardgrass [17, 22]: 90; Plant response rating, Wheat [18, 22]: 80; Plant response rating, Blackgrass [19, 22]: 80; Plant response rating, Foxtail, Giant [20, 22]: 80 |
| COCc1cccc(C2CNC(=O)C2C(=O)Nc2ccccc2Cl)c1 (stereo not drawn) [Compound 498] |  | 0 |  | 0 |  | 0 |  | 0 | 90 | 80 | 0 | 0 | 0 | 0 | 0 | 0 | 30 | 0 | 0 | 20 | Plant response rating, Pigweed [1, 23]: 0; Plant response rating, Ryegrass, Italian [2, 23]: 0; Plant response rating, Ragweed [3, 23]: 0; Plant response rating, Kochia [4, 23]: 0; Plant response rating, Barnyardgrass [5, 23]: 30; Plant response rating, Foxtail, Giant [6, 23]: 40; Plant response rating, Ducksalad ([7]; 250 g ai/ha): 90; Plant response rating, Sedge, Umbrella ([8]; 250 g ai/ha): 0; Plant response rating, Barnyardgrass ([9]; 250 g ai/ha): 45; Plant response rating, Rice ([10]; 250 g ai/ha): 0; Plant response rating, Corn [11, 24]: 0; Plant response rating, Pigweed [12, 24]: 0; Plant response rating, Ryegrass, Italian [13, 24]: 0; Plant response rating, Ragweed [14, 24]: 0; Plant response rating, Kochia [15, 24]: 0; Plant response rating, Galium [16, 24]: 0; Plant response rating, Barnyardgrass [17, 24]: 70; Plant response rating, Wheat [18, 24]: 0; Plant response rating, Blackgrass [19, 24]: 0; Plant response rating, Foxtail, Giant [20, 24]: 40 |
| COc1ccc(NC(=O)C2C(=O)NCC2c2ccc(F)c(F)c2)cc1F (stereo not drawn) [Compound 415] | 0 | 0 | 0 | 0 | 0 | 0 | 0 | 0 | 0 | 0 | 0 | 0 | 0 | 0 | 0 | 0 | 0 | 0 | 0 | 0 | Plant response rating, Barnyardgrass [5, 21]: 0; Plant response rating, Foxtail, Giant [6, 21]: 0; Plant response rating, Ducksalad ([7]; 500 g ai/ha): 0; Plant response rating, Sedge, Umbrella ([8]; 500 g ai/ha): 0; Plant response rating, Barnyardgrass ([9]; 500 g ai/ha): 0; Plant response rating, Rice ([10]; 500 g ai/ha): 0; Plant response rating, Corn [11, 22]: 0; Plant response rating, Pigweed [12, 22]: 0; Plant response rating, Ryegrass, Italian [13, 22]: 0; Plant response rating, Ragweed [14, 22]: 0; Plant response rating, Kochia [15, 22]: 0; Plant response rating, Galium [16, 22]: 0; Plant response rating, Barnyardgrass [17, 22]: 0; Plant response rating, Wheat [18, 22]: 0; Plant response rating, Blackgrass [19, 22]: 0; Plant response rating, Foxtail, Giant [20, 22]: 0 |
